Patent US9220706B2, “Inhibition of leukemic stem cells by PP2A activating agents” (Ohio State Innovation Foundation, priority 2012, dated 2015)

What was measured:
[1] = test system: CFSE^max/CD34^+ CML cells; experiment: CFSE-mediated tracking of quiescent cells, CML; type: cell-based, human; conditions: CFSE-labeled CD34^+ CML cells; FTY720 at 2.5 μM
Description: (§1) CFSE-mediated tracking of cell division. Carboxyfluorescein diacetate succinimidyl diester (CFSE)-stained cells (CellTrace CFSE Proliferation Kit: Invitrogen) were cultured in the presence of the indicated drugs (dosed at time zero and at day three), and the cells were harvested after 3 or 6 days in culture, and stained with anti-CD34 PE, Annexin-V V450, and the viability stain 7-AAD (BD Bioscience) to determine the number of viable quiescent cells (CFSEmax/CD34^+/7-AAD− cells) and the percentage of quiescent and apoptosis-committed cells (CFSEmax/CD34+/Annexin V+/7-AAD±). Cells were sorted into dividing and quiescent populations for Western blot analysis. For assessment of mouse quiescent leukemic HSCs, Lin- cells from 8 week-induced SCLtTA/BCR-ABL1 mice were CFSE-stained and used as described above. Quiescent cells (CFSE^max/CD34^+) were reported as a fraction of the initial number of CD34^+ cells.

BCR-ABL1^+ cells = experiment: Intracellular phosphorylation of FTY720; type: cell-based
[2] = test system: CFSE^max/CD34^+ NBM cells; experiment: CFSE-mediated tracking of quiescent cells, normal bone marrow; type: cell-based, human
Description: as §1

[3] = test system: CML cells (CFSE^max/CD34^+, CD34^+/CD38^−, CD34^+); experiment: Annexin-V/7-AAD apoptosis staining; type: cell-based, human
Description: as §1

PP2A = target: T1, PP2A (Homo sapiens, UniProt P67775); experiment: PP2A phosphatase assay; type: cell-based; conditions: CD34+/CD38− CML cells; FTY720 at concentration non-toxic for normal CD34+ progenitors
T1 construct: PP2Ac assays from whole cell lysates; endogenous in cells; host or cells: CD34+/CD38- and CD34+/CD38+ primary CML and normal bone-marrow cells; immunoprecipitated with Millipore PP2Ac antibody
Description: PP2A phosphatase assay. PP2Ac assays from whole cell lysates were carried out using the PP2Ac immunoprecipitation phosphatase assay kit (Millipore). Briefly, protein lysates (50 μg) in 100 μl of 20 mM Hepes. pH 7.0, 100 mM NaCl, 5 μg of PP2Ac antibody (Millipore), and 25 μl of Protein A-agarose were added to 400 μl of 50 mM Tris, pH 7.0, 100 mM CaCl2, and IPs were carried out at 4° C. for 2 h. IPs were used in the phosphatase reaction according to the manufacturer's protocol.

CML cells = experiment: Long term culture-initiating cell (LTC-IC) assay; type: cell-based, human; conditions: drug during first week of 6-week culture, vs untreated
Description: Long term culture-initiating cell (LTC-IC) and Colony-forming cell (CFC)/replating assays. 2×10^6 mononuclear CML cells were cultured with a 1:1 mixture of irradiated (80 Gy) IL-3/G-CSF-producing M2-10B4 and IL-3/KL-producing SI/SI murine fibroblasts in MyeloCult H5100 (StemCell Technologies) supplemented with hydrocortisone. Drugs were present during the first week of culture. Medium was replaced after 7 days, followed by weekly half-medium changes. After 6 weeks, adherent and floating cells were harvested and 5×10^4 cells plated into MethoCult H4435. LTC-IC-derived colonies were scored after 14 days. For CFC/replating, individual 14-day colonies from 10^3-10^5 CD34+/CD38− CML or 0.2×10^3-10^3 leukemic LSK cells plated in 0.9% H4435 or M3234 MethoCult, respectively, containing KL, G-CSF, GM-CSF, IL-3, IL-6, and Epo were replated and scored 2 weeks later.

T1 sequence (P67775 whole entry): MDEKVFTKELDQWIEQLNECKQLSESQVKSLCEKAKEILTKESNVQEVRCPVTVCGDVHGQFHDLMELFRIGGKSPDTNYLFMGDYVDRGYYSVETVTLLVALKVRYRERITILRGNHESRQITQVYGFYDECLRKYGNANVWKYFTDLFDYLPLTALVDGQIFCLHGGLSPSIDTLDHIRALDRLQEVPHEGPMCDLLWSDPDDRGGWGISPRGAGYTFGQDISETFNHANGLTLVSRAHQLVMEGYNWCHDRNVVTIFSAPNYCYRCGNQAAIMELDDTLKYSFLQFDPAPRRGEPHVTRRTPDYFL

CCCCCCCCc1ccc(CCC(N)(CO)CO)cc1 [FTY720]
decrease in CFSE^max (quiescent) CML HSCs [1]: 60-75% | intracellular FTY720 remaining unphosphorylated (BCR-ABL1^+ cells): more than 90% | effect on frequency/number of normal quiescent CFSE^max cells [2]: not influenced | apoptosis of CD34^+ CML progenitors in combination with imatinib ([3]; CD34^+ CML progenitors n=10): synergizes with imatinib | apoptosis of quiescent/HSC-enriched CML cells ([3]; CFSE^max/CD34^+ or CD34^+/CD38^− CML cells): triggered apoptosis | PP2A activity in leukemic HSCs (PP2A): restored PP2A activity at levels superimposable to those observed in the identical cell fraction from healthy donors | inhibition of LTC-ICs (CML cells): 60-70%
